According to patent publication US20030228357A1, “Dry granulated formulations of azithromycin” (Pfizer Inc., priority 2002, published 2003):
“Also recorded” adds a separate entry of the source.

Experiments:
Type in all cases: physicochemical
[1] = Tablet friability, Vanderkamp Friabulator (100 rotations/4 minutes)
Description: Friability is a standard test known to one skilled in the art. Friability is measured under standardized conditions by weighing out a certain number of tablets (generally 20 tablets or less), placing them in a rotating Plexiglas drum in which they are lifted during replicate revolutions by a radial lever, and then dropped approximately 8 inches. After replicate revolutions (typically 100 revolutions at 25 rpm), the tablets are reweighed and the percentage of formulation abraded or chipped is calculated. The friability of the tablets, of the present invention, is preferably in the range of about 0% to 3%, and values about 1%, or less, are considered acceptable for most drug and food tablet contexts. Friability which approaches 0% is particularly preferred.
(§1) All four formulations were compressed on the compaction simulator using either 0.344″×0.688″ oval tooling, or ½″ standard round concave (SRC) tooling. The tablets were tested for hardness (kP scale), using a Schleuniger hardness tablet tester (Dr. Schleuniger Pharmatron AG, Solothurn, Switzerland), and for friability (100 rotations/4 minutes) using a Vanderkamp Friabulator Tablet Tester (Vankel, Cary, N.C., US).

[2] = Tablet hardness, Schleuniger hardness tablet tester
Description: as §1

[3] = Slug (compact) hardness, Schleuniger hardness tablet tester
Description: A compaction simulator was used to compress the blends. The compaction simulator was designed as a single station tablet press in which the compression dwell time can be adjusted to simulate different types of tablet presses. All the formulations were slugged on the compaction simulator configured as the Kilian RX-67 press with a dwell time of 0.3145 seconds using […] round flat face tooling. The slugs were then comminuted using a Fitz mill with a 0.125″ screen with knives forward and run at slow speed. […] The slugs were tested for hardness (kP scale), using a Schleuniger hardness tablet tester (Dr. Schleuniger Pharmatron AG, Solothurn, Switzerland).

[4] = Tablet hardness, Schleuniger hardness tablet tester; conditions: for Avg Tab Hardness: Short blend, Oval tooling
[5] = Indices of tableting performance (Hiestand) of bulk azithromycin; conditions: forms N, M, G, A milled, F and J unmilled
Description: Indices of tableting performance, for several azithromycin forms, were assessed to identify any mechanical deficiencies or attributes that may affect tablet formulation for these azithromycin forms. This assessment was performed in accordance with the procedures described in “Indices of Tableting, Performance” […] and D. P. Smith, Powder Technology 38 [1984] pp. 145-159. Specifically, the Brittle Fracture Index, BFI, was calculated from the ratio of a material's regular tensile strength to its compromised tensile strength. Strain Index, SI, was determined from the dynamic indentation hardness test. Worst Case Bonding Index was determined by assessing the extent of particle bonding remaining after decompression assuming a very short compression dwell time and a plastic mechanism of particle separation during decompression. Tableting Indices were determined for bulk azithromycin lots of six different crystalline forms, specifically forms N, M, G, A, F and J. Forms N, M and G were milled with a Fitzmill (Model JT, The Fitzpatrick Co., Elmhurst, Ill.) using a 0.027'' screen and knives at high speed in an attempt to match the smaller particle size of milled Form A. Unmilled forms F and J were evaluated “as is” due to their relatively small particle sizes.

[6] = Tablet friability, Vanderkamp Friabulator (100 rotations/4 minutes); remark: listed apart in the source
[7] = Density and Carr's Compressibility Index (flowability) of dry blends and dry granulations
Description: Carr's Compressibility Index was used to evaluate the flowability of the four dry granulations. Carr's Compressibility Index is a simple test to evaluate flowability by comparing both the initial and final (tapped) bulk volumes and the rate of packing down. A useful empirical guide to flow is given by Carr's compressibility index: Compressibility Index(%)=[(tapped density−initial density)/tapped density]×100 […] The procedure is described in Int. J. Pharm. Tech. & Prod. Mfr., 6(3) 10-16, 1985.

[8] = Table 4D, high drug loading, diluent Lactose, modified capsule shape
[9] = Table 5B, Explotab, 500 mgA, Oval, Precompression 3.5 kN
[10] = Table 5B, Explotab, 500 mgA, Oval, Precompression No
[11] = Table 5B, PVP-XL, 250 mgA, Modified Capsule, Precompression No
[12] = Table 5B, PVP-XL, 600 mgA, Modified Oval, Precompression No
[13] = Table 3C, low drug loading (35.2 wt % azithromycin), DCP anhydrous, oval tablets, target weight 750 mg
[14] = 35.2 wt % azithromycin, dicalcium phosphate anhydrous diluent, Short blend method
[15] = Table 3A, low drug loading: 35.2 wt % azithromycin, 54.8 wt % dicalcium phosphate anhydrous, long blend
[16] = Table 4A, low drug loading (35.2 wt % azithromycin), diluent Lactose
[17] = Table 4B, high drug loading (58.2 wt % azithromycin), diluent Lactose
[18] = Table 5A, 58.2 wt % azithromycin, dicalcium phosphate dihydrate, disintegrant Explotab
[19] = Table 5A, 58.2 wt % azithromycin, dicalcium phosphate dihydrate, disintegrant PVP-XL
[20] = Table 3D, high drug loading (58.2 wt % azithromycin), DCP anhydrous, modified capsule shape tablets, target weight 450 mg
[21] = Table 5B, Explotab, 250 mgA, Modified Capsule, Precompression No
[22] = Table 5B, PVP-XL, 600 mgA, Modified Oval, Precompression 1.5 kN
[23] = 35.2 wt % azithromycin, dicalcium phosphate anhydrous diluent, Short blend method, slugged
[24] = Table 7A, 55.76 wt % azithromycin, lactose anhydrous, corn starch, roller compaction 850 psi
[25] = Table 6B, Drug Loading High, Modified Capsule 0.262″ × 0.531″
[26] = Table 6B, Drug Loading High, Oval 0.344″ × 0.688″
[27] = Table 6B, Drug Loading Low, Modified Capsule 0.262″ × 0.531″
[28] = Table 6B, Drug Loading Low, Oval 0.344″ × 0.688″
[29] = Table 6B, Drug Loading Low, ½″ SRC
[30] = Table 3B, high drug loading: 58.2 wt % azithromycin, 31.8 wt % dicalcium phosphate anhydrous, long blend
[31] = Table 6A, Drug Loading High (58.2 wt % azithromycin), DCP anhydrous
[32] = Table 6A, Drug Loading Low (35.2 wt % azithromycin), DCP anhydrous

## CCC1OC(=O)C(C)C(O[C@H]2C[C@@](C)(OC)[C@@H](O)C(C)O2)C(C)[C@@H](OC2OC(C)CC(N(C)C)[C@H]2O)[C@@](C)(O)C[C@@H](C)CN(C)[C@H](C)[C@@H](O)[C@]1(C)O (some centres unmarked) [Form M, azithromycin monohydrate hemi-isopropanol solvate]
[1]; Table 2B Run 6, Short blend, Oval tooling, compression force 19.4 kN
  Friability: capped
[1]; Table 2B Run 7, Short blend, Oval tooling, compression force 14 kN
  Friability: capped
[1]; [8]
  Friability: 0.28%
[1]; [9]
  Friability: 0.50%
[1]; [10]
  Friability: 2.71%
[1]; [11]
  Friability: 0.25%
[1]; [12]
  Friability: 6.34%
[2]; [13]
  Avg Hardness: 8.4 kP
[3]; [14]
  Avg Slug Hardness: 10.9 kP
[3]; [15]
  Avg Slug Hardness: 11 kP
[3]; [16]
  Avg Slug Hardness: 13 kP
[3]; [17]
  Avg Slug Hardness: 11 kP
[3]; [18]
  Avg Slug Hardness: 12 kP
[3]; [19]
  Avg Slug Hardness: 13 kP
[4]; Table 2B Run 6, compression force 19.4 kN
  Avg Tab Hardness: 8.4 kP
[4]; Table 2B Run 7, compression force 14 kN
  Avg Tab Hardness: 5.1 kP
[4]; [20]
  Avg Hardness: 6.1 kP
[4]; [8]
  Avg Tablet Hardness: 5.8 kP
[4]; [21]
  Avg Hardness: 4.5 kP
[4]; [9]
  Avg Hardness: 7.4 kP
[4]; [10]
  Avg Hardness: 5.6 kP
[4]; [11]
  Avg Hardness: 4.9 kP
[4]; [22]
  Avg Hardness: 9.2 kP
[4]; [12]
  Avg Hardness: 4.2 kP
[5]
  Brittle Fracture Index (BFI): 0.10
  Strain Index (SI): 0.0048
  Tensile Strength: 0.79 Mpa
  Worst Case Bonding Index (BIw) × 10^2: 1.0
[6]; [20]
  Friability: 0.45%
[6]; [21]
  Friability: 0.33%
[6]; [22]
  Friability: 0.34%
[7]; [14]
  Dry Blend Carr's Index: 36%
  Dry Blend density As Is: 0.68 g/cc
  Dry Blend density Tapped: 1.08 g/cc
[7]; [23]
  Granulation Carr's Index: 28%
  Granulation Density As Is: 0.82 g/cc
  Granulation Density Tapped: 1.14 g/cc
[7]; [15]
  Granulation Carr's Index: 28%
  Granulation Density As Is: 0.82 g/cc
  Granulation Density Tapped: 1.14 g/cc
[7]; [16]
  Dry Granulation Carr's Index: 30%
  Dry Granulation Density As Is: 0.55 g/cc
  Dry Granulation Density Tapped: 0.78 g/cc
[7]; [17]
  Dry Granulation Carr's Index: 29%
  Dry Granulation Density As Is: 0.53 g/cc
  Dry Granulation Density Tapped: 0.75 g/cc
[7]; [18]
  Dry Granulation Carr's Index: 26%
  Dry Granulation Density As Is: 0.67 g/cc
  Dry Granulation Density Tapped: 0.91 g/cc
[7]; [19]
  Dry Granulation Carr's Index: 25%
  Dry Granulation Density As Is: 0.63 g/cc
  Dry Granulation Density Tapped: 0.84 g/cc
[7]; [24]
  Dry Granulation Carr's Index: 24%
  Dry Granulation Density As Is: 0.62 g/cc
  Dry Granulation Density Tapped: 0.82 g/cc

## CCC1OC(=O)C(C)C(O[C@H]2C[C@@](C)(OC)[C@@H](O)C(C)O2)C(C)[C@@H](OC2OC(C)CC(N(C)C)[C@H]2O)[C@@](C)(O)C[C@@H](C)CN(C)[C@H](C)[C@@H](O)[C@]1(C)O (some centres unmarked) [Form J, azithromycin monohydrate hemi-n-propanol solvate]
[1]; [13]
  Friability: broke during friability testing; also recorded: Broken
[1]; [25]
  Friability: 0.38%
[1]; [26]
  Friability: 0.71%
[1]; [27]
  Friability: 0.52%
[1]; [28]
  Friability: Broken Tablets
[1]; [29]
  Friability: 1.46%
[2]; [13]
  Avg Hardness: 9.1 kP
[2]; [26]
  Avg Hardness: 10.2 kP
[2]; [28]
  Avg Hardness: 9.1 kP
[3]; [15]
  Avg Slug Hardness: 14 kP
[3]; [30]
  Avg Slug Hardness: 11 kP
[3]; [31]
  Avg Slug Hardness: 11 kP
[3]; [32]
  Avg Slug Hardness: 14 kP
[4]; [20]
  Avg Hardness: 6.5 kP
[4]; [25]
  Avg Hardness: 6.5 kP
[4]; [27]
  Avg Hardness: 6.9 kP
[4]; [29]
  Avg Hardness: 5.4 kP
[5]
  Brittle Fracture Index (BFI): 0.11
  Strain Index (SI): 0.0043
  Tensile Strength: 0.69 Mpa
  Worst Case Bonding Index (BIw) × 10^2: 0.7
[6]; [20]
  Friability: 0.38%
[7]; [15]
  Granulation Carr's Index: 22%
  Granulation Density As Is: 0.87 g/cc
  Granulation Density Tapped: 1.12 g/cc
[7]; [30]
  Granulation Carr's Index: 28%
  Granulation Density As Is: 0.67 g/cc
  Granulation Density Tapped: 0.93 g/cc
[7]; [31]
  Dry Granulation Carr's Index: 28%
  Dry Granulation Density As Is: 0.67 g/cc
  Dry Granulation Density Tapped: 0.93 g/cc
[7]; [32]
  Dry Granulation Carr's Index: 22%
  Dry Granulation Density As Is: 0.87 g/cc
  Dry Granulation Density Tapped: 1.12 g/cc
